From patent US10500198B2, “Bis-benzylidine piperidone proteasome inhibitor with anticancer activity” (The Johns Hopkins University, priority 2013, dated 2019)

How the values were obtained:
RPN13 = target: T1, RPN13 (Homo sapiens, UniProt Q16186); assay: Biotin labeling assay; format: binding; conditions: cell lysate or purified RP, streptavidin-peroxidase blot
T1 construct: endogenous in cells; host or cells: HeLa, HS578T cell lysate
Description: FIGS. 10 A-10E show a series of graphs and immunoblots showing the effects of several compounds on cell viability and proteasome activity. […] 10B and 10C show immunoblots of the proteasome activity of cell lines treated with the indicated compounds. […] IC50 values were determined in triplicate. In FIG. 10B, HeLa cells were treated for 12 hr and the cell lysate was subjected to immunoblot analysis with anti-Ubiquitin antibody. In FIG. 10C, SiHa cells were treated with the indicated compounds for 12 hr and the lysate subjected to Western blot analysis with anti-Ubiquitin antibody. HeLa cell lysate was treated with RA190B, subjected to SDS-PAGE, and probed with streptavidin-peroxidase following protein transfer to a polyvinylidene difluoride (PVDF) membrane. The streptavidin-peroxidase bound to biotinylated cellular proteins, but a striking new band at 42 kDa appeared in RA190B-treated samples (FIG. 2A). […] IC50 values were determined in triplicate.
To eliminate the possibility that another RP component was required for RA190B interaction, RPN13 or an irrelevant protein (L2) was overexpressed in bacteria. Cell lysate harvested from bacteria either with or without […] induction of ectopic protein expression was labeled with RA190B and probed by blotting with streptavidin-peroxidase. RA190B reacted strongly with a 42 kDa protein only in lysates of bacteria expressing RPN13 (FIG. 2D). […] 800 μL fractions were collected and alternate fractions (1,3,5,7,9,11,13,15,17) were analyzed for the presence of proteasomal proteins (RPN13, RPN2, RPN1 and UCH37) by Western blot analysis.
Human cells (5×10^6 HeLa or 293TT cells) were lysed using MPER (Pierce) lysis buffer (500 μL). RPN13 or HPV L2 transformed bacterial cells (500 μL of culture) were centrifuged to harvest the cells which were re-suspended in 500 μL BPER (Pierce). Cell lysates were centrifuged at 10,000 rpm briefly (2 min) at 4° C. to remove cell debris. Lysate supernatant (200 μL) was pre cleared with streptavidin dyna beads (20 μL) for 1 h at 4° C. to remove non-specific biotin binding and incubated with compounds (indicated concentrations or 20 μM) at 4° C. for 1 hr. An equal amount of each sample (20 μL of lysate) was mixed with an equal volume of Laemmli sample buffer (20 μL) (BioRad) and was boiled for 5 min. […] (24 V). Membrane was blocked with 5% BSA in PBST for 1 hr at room temperature and washed for 20 min (3×PBST). Then the membrane was probed with HRP-streptavidin (1:10,000 in PBST) for 1 hr at room temperature and washed for 30 min (3×PBST) and developed using HyGLO chemiluminescent detection reagent (Denville) for biotin recognition. For the purified enzyme assay, 19S purified proteasome (R&D Systems, Cat. No. E-366) (500 ng) in 19S buffer (20 mM HEPES, 20 mM NaCl, 1 mM DTT, 15% Glycerol) was incubated with compounds (20 μM) for 1 hr at room temperature and mixed with an equal volume of Laemmli sample buffer (20 μL) (BioRad) and was boiled for 5 min. Each sample was loaded onto gel and followed the western blot protocol mentioned above.
Purified 19S proteasome (500 ng) was incubated with corresponding compounds for 30 min and subjected to immunoblot and probed with HRP-conjugated streptavidin. In FIG. 23, the single band at 42 KDa indicates Rpn13 binding to 195. RA183B (20 μM) is used as positive control for Rpn13 binding. Competition experiments were done with RA183 (100 μM) and RA195 (100 μM) along with RA195B (20 μM).

[1] = system: HCC 1806, HS578T, BT549 and MB-231 breast cancer cells; assay: Viability of triple negative breast cancer cell lines; format: cell-based; conditions: 48 hours
Description: To test the efficacy of various RA compound derivatives on the viability of breast cancer cells, breast cancer cell lines were treated in vitro with varying concentrations of selected compounds. […] FIGS. 16A-16E are a series of data graphs and a western blot showing the efficacy of select compounds against various breast cancer cell lines. […] Briefly HS578T cell lysate was incubated with corresponding compounds for the period of 1 hr at 4 C and subjected to Western blot analysis and probed for HRP-Streptavidin.

T1 sequence (Q16186 whole entry): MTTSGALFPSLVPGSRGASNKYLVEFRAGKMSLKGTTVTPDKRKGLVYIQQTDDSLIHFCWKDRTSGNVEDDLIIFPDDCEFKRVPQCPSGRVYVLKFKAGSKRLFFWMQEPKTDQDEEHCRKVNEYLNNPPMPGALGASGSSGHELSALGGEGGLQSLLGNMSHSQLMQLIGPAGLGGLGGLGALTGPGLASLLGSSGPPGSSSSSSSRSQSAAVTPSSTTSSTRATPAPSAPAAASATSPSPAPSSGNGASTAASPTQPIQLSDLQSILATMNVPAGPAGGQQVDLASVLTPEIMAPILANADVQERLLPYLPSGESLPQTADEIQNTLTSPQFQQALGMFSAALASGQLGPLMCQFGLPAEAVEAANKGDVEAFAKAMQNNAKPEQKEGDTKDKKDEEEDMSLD

labeling of / competition for RPN13 (42 kDa band) (RPN13): competes the binding of RA190B to RPN13
SMILES: C=CC(=O)N[C@@H](Cc1ccccc1)C(=O)N1C/C(=C\c2ccc(Cl)c(Cl)c2)C(=O)/C(=C/c2ccc(Cl)c(Cl)c2)C1 [RA190Acr]
potency relative to RA190 [1]: potency similar to RA190
